Source: the NIST ThermoML archive (doi:10.1021/je060271a)
± gives the expanded uncertainty stated by the source.

Settings: 343.15 K, Liquid, Vibrating tube method

Measured: mass density

CCCCCCC(=O)OCC(COC(=O)CCCCCC)(COC(=O)CCCCCC)COC(=O)CCCCCC [pentaerythritol tetraheptanoate]
941.1 ± 1.1 kg/m3: 532 kPa | 556.3 kPa | 566.3 kPa | 613.5 kPa | 625.7 kPa | 635.8 kPa | 697.1 kPa | 724 kPa | 752.5 kPa | 801.2 kPa | 856.1 kPa
941.3 ± 1.1 kg/m3: 817.7 kPa | 893.8 kPa | 938.8 kPa | 1008.1 kPa | 1031.5 kPa | 1098.2 kPa
941.5 ± 1.1 kg/m3: 1061.2 kPa | 1174.6 kPa | 1208.5 kPa | 1224.5 kPa | 1375.4 kPa
940.8 ± 1.1 kg/m3: 488.1 kPa
942.2 ± 1.1 kg/m3: 2012 kPa | 2021 kPa | 2059.8 kPa | 2079.3 kPa | 2090.4 kPa | 2099.8 kPa | 2111.2 kPa | 2142.6 kPa | 2152.5 kPa | 2172.5 kPa
941.9 ± 1.1 kg/m3: 1699 kPa | 1762.2 kPa | 1792.2 kPa | 1859.8 kPa
942 ± 1.2 kg/m3: 1847.4 kPa | 1901.2 kPa | 1919.1 kPa
941.8 ± 1.1 kg/m3: 1489.7 kPa | 1535.7 kPa | 1564.1 kPa | 1588.8 kPa | 1613.6 kPa | 1644.5 kPa | 1671.3 kPa | 1727.1 kPa | 1821.9 kPa
941.6 ± 1.1 kg/m3: 1189.9 kPa | 1241 kPa | 1261 kPa | 1278.5 kPa | 1296.2 kPa | 1314.1 kPa | 1336.3 kPa | 1355.4 kPa | 1441 kPa
942 ± 1.1 kg/m3: 1867.2 kPa | 1876.6 kPa | 1892.9 kPa
941.2 ± 1.1 kg/m3: 671.2 kPa | 682.7 kPa | 710.1 kPa | 767.1 kPa | 785.4 kPa | 834.7 kPa | 874 kPa | 917.4 kPa | 984.8 kPa
941.7 ± 1.1 kg/m3: 1467.4 kPa | 1512.2 kPa
941.4 ± 1.2 kg/m3: 1083.6 kPa
942 ± 2.2 kg/m3: 1992.2 kPa
942.1 ± 1.2 kg/m3: 1911 kPa | 1927.8 kPa | 1937.7 kPa | 1964.1 kPa
942.3 ± 1.1 kg/m3: 2069.4 kPa | 2130.8 kPa | 2162.2 kPa
940.9 ± 1.1 kg/m3: 476.1 kPa | 495.4 kPa | 502 kPa | 508.7 kPa | 540.9 kPa | 583.8 kPa | 659.6 kPa
941 ± 1.1 kg/m3: 482 kPa | 517.2 kPa | 524.5 kPa | 548.4 kPa | 574.9 kPa | 594.9 kPa | 603.8 kPa | 646.5 kPa | 738.3 kPa
942.1 ± 1.1 kg/m3: 1884.6 kPa | 1946.9 kPa | 1955.4 kPa | 1974.3 kPa | 1983.3 kPa | 2001 kPa | 2030.2 kPa | 2040.9 kPa | 2050.5 kPa | 2121.3 kPa
941.4 ± 1.1 kg/m3: 1114.7 kPa | 1128.5 kPa | 1142.9 kPa | 1159.9 kPa
941.3 ± 1.2 kg/m3: 961.5 kPa
